Laboratory results reported in article PMC5609876, “Metformin selectively targets redox control of complex I energy transduction” (Redox Biology, 2017).
Where two headings read alike, the source gives them in different places.

Columns and labels:
complex I [1] = test system: T1, complex I; assay: NADH oxidation in rat liver submitochondrial particles; format: biochemical
T1 construct: gene Ndufv1; submitochondrial particles from rat liver

complex I [2] = target: T2, complex I; assay: complex I NADH:paraquat electron transfer, microplate activity assay (ubiquinone replaced by paraquat); format: biochemical, Bos taurus
T2 construct: gene NDUFV1; MitoTox Complex I OXPHOS Activity Microplate Assay (ab109903)

How did the “NADH oxidation in rat liver submitochondrial particles” value (complex I [1]) turn out when [H]/N=C(/N)N/C(=N/[H])NCCc1ccccc1 [phenformin] was run?
The value was “Effects of both phenformin and DG5 on NADH oxidation were observed at much lower concentrations than responses to metformin”.

Which IC50 (complex I [2]) does the source give for [H]/N=C(/N)NCCCCCNC(=N)N [DG5] here?
Its IC50 is 12 mM.

How did the IC50 (complex I [2]; read-out: IC50) turn out when CN(C)C(=N)N=C(N)N [metformin] was run?
Its IC50 is 91 mM.
